These results are taken from ChEMBL document CHEMBL4190324 (Eur J Med Chem, 2017).

Each structure is given as a SMILES string. Bounds are passed on as bounds.

The target of one data set is Cholinesterase (Equus caballus, UniProt P81908).
Data set [1] can be described thus: Cytotoxicity against HEK293 cells assessed as cell viability up to 100 uM after 24 hrs by MTT assay relative to control. It is filed as cell-based. Particulars: human, read-out: Activity. (Tetrazolium dyes change colour on reduction, which living cells bring about.)
For a further data set, the target named is Acetylcholinesterase (Electrophorus electricus, UniProt O42275). Kind of data set: Inhibition of electric eel AChE using acetylthiocholine as substrate preincubated for 20 mins followed by substrate addition measured every 2 mins for 20 mins by Ellman's method. (In general: In Ellman's method for cholinesterases, released thiocholine reacts with DTNB.)
Acetylcholinesterase, sequence (O42275 whole entry): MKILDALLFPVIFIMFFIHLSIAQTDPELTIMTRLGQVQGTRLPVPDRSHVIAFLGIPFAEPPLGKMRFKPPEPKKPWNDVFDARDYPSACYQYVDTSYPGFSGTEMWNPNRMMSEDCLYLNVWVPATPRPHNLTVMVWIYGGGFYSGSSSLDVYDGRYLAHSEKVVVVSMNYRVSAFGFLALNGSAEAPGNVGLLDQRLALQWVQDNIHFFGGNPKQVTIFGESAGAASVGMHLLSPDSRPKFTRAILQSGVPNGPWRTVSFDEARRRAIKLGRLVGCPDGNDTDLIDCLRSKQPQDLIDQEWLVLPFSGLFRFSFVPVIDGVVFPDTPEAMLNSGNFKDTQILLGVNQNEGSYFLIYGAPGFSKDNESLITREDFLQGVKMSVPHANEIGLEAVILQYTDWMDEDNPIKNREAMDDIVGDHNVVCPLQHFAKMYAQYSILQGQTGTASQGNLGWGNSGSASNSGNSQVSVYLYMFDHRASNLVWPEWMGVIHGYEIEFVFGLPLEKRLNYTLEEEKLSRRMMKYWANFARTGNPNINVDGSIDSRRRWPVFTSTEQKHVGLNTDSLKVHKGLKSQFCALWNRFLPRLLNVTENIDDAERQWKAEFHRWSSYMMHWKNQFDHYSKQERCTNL

Data set [2] concerns HEK293. Briefly: Cytotoxicity against HEK293 cells at > 50 uM after 24 hrs by MTT assay. It is filed as cell-based. Conditions: human, hek293, 24 h.
Data set [3] can be described thus: Hepatotoxicity against human HepG2 cells assessed as reduction in cell viability at 50 uM after 24 hrs by MTT assay. It is filed as toxicity, cell-based. Particulars: hepg2, 24 h.
Data set [4] in a line: Hepatotoxicity against human HepG2 cells assessed as reduction in cell viability at 300 uM after 24 hrs by MTT assay. Format: toxicity, cell-based. Particulars: hepg2, 24 h.
A short description of data set [5]: Hepatotoxicity against human HepG2 cells assessed as reduction in cell viability at 10 to 300 uM after 72 hrs by MTT assay. It is filed as toxicity, cell-based. Conditions: hepg2, 72 h.
Data set [6] relates to HEK293. Briefly: Cytotoxicity against HEK293 cells at 0.1 to 300 uM after 24 hrs by MTT assay. Format: cell-based. Conditions: human, hek293, 24 h.

Cholinesterase, sequence (P81908 whole entry): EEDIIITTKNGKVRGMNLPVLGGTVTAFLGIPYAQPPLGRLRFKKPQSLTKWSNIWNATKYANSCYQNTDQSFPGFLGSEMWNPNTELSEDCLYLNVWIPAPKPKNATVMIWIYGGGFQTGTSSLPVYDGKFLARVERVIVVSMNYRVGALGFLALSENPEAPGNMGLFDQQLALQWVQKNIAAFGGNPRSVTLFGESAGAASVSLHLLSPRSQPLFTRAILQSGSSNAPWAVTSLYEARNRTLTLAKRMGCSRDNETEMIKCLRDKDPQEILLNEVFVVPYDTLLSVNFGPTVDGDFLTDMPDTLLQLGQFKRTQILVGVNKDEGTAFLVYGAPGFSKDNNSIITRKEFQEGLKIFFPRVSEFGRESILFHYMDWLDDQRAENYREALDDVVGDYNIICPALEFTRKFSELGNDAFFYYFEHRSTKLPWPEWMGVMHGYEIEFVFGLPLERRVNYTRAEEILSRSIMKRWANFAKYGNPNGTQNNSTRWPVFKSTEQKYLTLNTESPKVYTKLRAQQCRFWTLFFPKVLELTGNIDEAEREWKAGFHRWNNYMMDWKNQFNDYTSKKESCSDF

By IC50 is commonly meant the midpoint of a concentration-inhibition curve. The low end stands for greater potency in that assay, the high end for weaker potency in that assay. Turning to `Cn1nccc1NC(=O)C1CCc2nc3cc(Br)ccc3c(N)c2C1` (configuration not stated), the IC50 against Cholinesterase came to 20900 nM; against Acetylcholinesterase it was 17.7 nM. Further, in data set [1], the viability at 24 h is more than 80%.

Take `Cn1cc(-c2ccc3c(N)c4c(nc3c2)CCC(C(=O)NCCc2ccccc2)C4)cn1` (configuration not stated): in the data set with HEK293 [2], the Activity entry is “Toxic”. Besides, the half-inhibitory concentration (IC50) on Cholinesterase was 10600 nM; at Acetylcholinesterase, 189 nM.

Consider `CNC(=O)C1CCc2nc3cc(Br)ccc3c(N)c2C1` (configuration not stated), for which, in data set [1], the viability at 24 h is more than 80%. Besides, the Activity entry in data set [3] was “Toxic”. At Acetylcholinesterase, this compound showed an IC50 of 28.6 nM.

`NNC(=O)C1CCc2nc3ccccc3c(N)c2C1` (configuration not stated): the Activity result (in data set [4]; in data set [5]; with HEK293 [6]) was “Non-Toxic” in each case. The same compound came in with an IC50 against Acetylcholinesterase of 13 nM.

Turning to `Nc1c2c(nc3cc(Br)ccc13)CCC(C(=O)NCCCc1ccccc1)C2` (configuration not stated), the Activity entry (in the data set on HEK293 [2]; in data set [3]) was “Toxic” throughout. Further, the IC50 came to 5110 nM against Cholinesterase and 7.14 nM at Acetylcholinesterase.

Consider `Nc1c2c(nc3cc(Br)ccc13)CCC(C(=O)NCCc1ccccc1)C2` (configuration not stated), for which the Activity entry (in the data set on HEK293 [2]; in data set [3]) was “Toxic” in each case. In addition, the figures for the IC50 against Cholinesterase and against Acetylcholinesterase were 7170 nM and 24.1 nM, respectively.

In the case of `Cn1cc(-c2ccc3c(N)c4c(nc3c2)CCC(C(=O)NCc2ccccc2)C4)cn1` (configuration not stated), the 50% inhibitory concentration (IC50) at Cholinesterase is 2260 nM; against Acetylcholinesterase it was 191 nM.

Regarding `Nc1c2c(nc3ccccc13)CCC(C(=O)NCCCc1ccccc1)C2` (configuration not stated), the Activity entry (with HEK293 [2]; in data set [3]) was “Toxic” in each case. The values for the IC50 against Cholinesterase and at Acetylcholinesterase were 3680 nM and 5.17 nM, respectively.

As to `Nc1c2c(nc3cc(Br)ccc13)CCC(C(=O)NCc1ccccc1)C2` (configuration not stated), the Activity entry with HEK293 [2] is listed as “Toxic”. The results for the IC50 at Cholinesterase and on Acetylcholinesterase were 10200 nM and 33.7 nM, respectively. Also, the viability at 24 h in data set [1] was more than 80%.

Regarding `Nc1c2c(nc3cc(-c4cncnc4)ccc13)CCC(C(=O)NCCCc1ccccc1)C2` (configuration not stated), the Activity result with HEK293 [2] is reported as “Toxic”. The IC50 against Cholinesterase came out at 18000 nM; on Acetylcholinesterase, 40.8 nM.

As for `Nc1c2c(nc3ccccc13)CCC(C(=O)NCc1ccccc1)C2` (configuration not stated), the half-maximal inhibitory concentration (IC50) at Cholinesterase was 10800 nM; against Acetylcholinesterase it was 37.2 nM.

In the case of `Cn1cc(-c2ccc3c(N)c4c(nc3c2)CCC(C(=O)NCCCc2ccccc2)C4)cn1` (configuration not stated), the IC50 against Cholinesterase was determined as 2770 nM; against Acetylcholinesterase, 57.6 nM.

`Nc1c2c(nc3ccccc13)CCC(C(=O)NCCc1ccccc1)C2` (configuration not stated): the Activity result (in the data set on HEK293 [2]; in data set [3]) was “Toxic” throughout. In addition, the half-maximal inhibitory concentration (IC50) at Cholinesterase amounted to 4050 nM; on Acetylcholinesterase it was 16.8 nM.
